# Measured values: PubChem BioAssay AID2060604 (Molecular Pharmacology Branch, DTP, NCI, 2025)
# Test system: 379773-124-R-J2-PDC complex spheroids, viability % test/control
# Assay: Anticancer human tumor 379773-124-R-J2-PDC patient-derived endometrial carcinoma cell line growth inhibition [CLK]
# Details: for IC50: curve of first compound; for viability, T/C: stronger effect = lower value
# Procedure, shortened: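 Patient-derived tumor cells grown as complex spheroids with HUVEC endothelial cells and mesenchymal stem cells, treated with drug combinations. Concentrations descend in half-log steps from near clinical Cmax, or from 10 microM if Cmax unknown.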
# [1] = second compound 0.0316 µM, first compound 0.0316 µM
# [2] = second compound 0.0316 µM, first compound 0.1 µM
# [3] = second compound 0.0316 µM, first compound 0.316 µM
# [4] = second compound 0.0316 µM, first compound 1 µM
# [5] = second compound 0.0316 µM, first compound 3.16 µM
# [6] = second compound 0.0316 µM, first compound 10 µM
# [7] = second compound 0.1 µM, first compound 0.0316 µM
# [8] = second compound 0.1 µM, first compound 0.1 µM
# [9] = second compound 0.1 µM, first compound 0.316 µM
# [10] = second compound 0.1 µM, first compound 1 µM
# [11] = second compound 0.1 µM, first compound 3.16 µM
# [12] = second compound 0.1 µM, first compound 10 µM
# [13] = second compound 0.316 µM, first compound 0.0316 µM
# [14] = second compound 0.316 µM, first compound 0.1 µM
# [15] = second compound 0.316 µM, first compound 0.316 µM
# [16] = second compound 0.316 µM, first compound 1 µM
# [17] = second compound 0.316 µM, first compound 3.16 µM
# [18] = second compound 0.316 µM, first compound 10 µM
# [19] = second compound 1 µM, first compound 0.0316 µM
# [20] = second compound 1 µM, first compound 0.1 µM
# [21] = second compound 1 µM, first compound 0.316 µM
# [22] = second compound 1 µM, first compound 1 µM
# [23] = second compound 1 µM, first compound 3.16 µM
# [24] = second compound 1 µM, first compound 10 µM
# [25] = second compound 3.16 µM, first compound 0.0316 µM
# [26] = second compound 3.16 µM, first compound 0.1 µM
# [27] = second compound 3.16 µM, first compound 0.316 µM
# [28] = second compound 3.16 µM, first compound 1 µM
# [29] = second compound 3.16 µM, first compound 3.16 µM
# [30] = second compound 3.16 µM, first compound 10 µM
# [31] = second compound 10 µM, first compound 0.0316 µM
# [32] = second compound 10 µM, first compound 0.1 µM
# [33] = second compound 10 µM, first compound 0.316 µM
# [34] = second compound 10 µM, first compound 1 µM
# [35] = second compound 10 µM, first compound 3.16 µM
# [36] = second compound 10 µM, first compound 10 µM
# 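Further: compound exposure lasted seven days before the viability readout.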
# 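Wherever viability, T/C is given: 100% = DMSO vehicle control wells.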
smiles,measurement,setting,value
C#Cc1c(F)ccc2cc(O)cc(-c3ncc4c(N5CC6CCC(C5)N6)nc(OCC56CCCN5CC(F)C6)nc4c3F)c12 (stereo not drawn) + CNC(=O)c1ccc(Nc2nc(OC3CCCC3)c3c(-c4ccc5nc(C)oc5c4)c[nH]c3n2)c(OC)c1,IC50,second compound 0.0316 µM,> 10 µM
same,IC50,second compound 0.1 µM,< 0.0316 µM
same,IC50,second compound 0.316 µM,< 0.0316 µM
same,IC50,second compound 1 µM,< 0.0316 µM
same,IC50,second compound 3.16 µM,< 0.0316 µM
same,IC50,second compound 10 µM,< 0.0316 µM
same,"viability, T/C",[1],73.2%
same,"viability, T/C",[2],65%
same,"viability, T/C",[3],72.9%
same,"viability, T/C",[4],79.1%
same,"viability, T/C",[5],71.3%
same,"viability, T/C",[6],62%
same,"viability, T/C",[7],41.2%
same,"viability, T/C",[8],39%
same,"viability, T/C",[9],38.3%
same,"viability, T/C",[10],32.4%
same,"viability, T/C",[11],32.2%
same,"viability, T/C",[12],36%
same,"viability, T/C",[13],41%
same,"viability, T/C",[14],33.1%
same,"viability, T/C",[15],39%
same,"viability, T/C",[16],37.1%
same,"viability, T/C",[17],33.4%
same,"viability, T/C",[18],28.4%
same,"viability, T/C",[19],38.8%
same,"viability, T/C",[20],33%
same,"viability, T/C",[21],25.8%
same,"viability, T/C",[22],29.1%
same,"viability, T/C",[23],33.1%
same,"viability, T/C",[24],29%
same,"viability, T/C",[25],31.9%
same,"viability, T/C",[26],27.4%
same,"viability, T/C",[27],28.3%
same,"viability, T/C",[28],31.4%
same,"viability, T/C",[29],28%
same,"viability, T/C",[30],23.2%
same,"viability, T/C",[31],32.7%
same,"viability, T/C",[32],27.1%
same,"viability, T/C",[33],28%
same,"viability, T/C",[34],27.1%
same,"viability, T/C",[35],27.4%
same,"viability, T/C",[36],27.1%
CC(CO)NC(=O)c1cc(-c2ccc(Cl)cc2)nn(-c2cnn(C)c2)c1=O (stereo not drawn) + CNC(=O)c1ccc(Nc2nc(OC3CCCC3)c3c(-c4ccc5nc(C)oc5c4)c[nH]c3n2)c(OC)c1,IC50,second compound 0.0316 µM,> 10 µM
same,IC50,second compound 0.1 µM,< 0.0316 µM
same,IC50,second compound 0.316 µM,< 0.0316 µM
same,IC50,second compound 1 µM,< 0.0316 µM
same,IC50,second compound 3.16 µM,< 0.0316 µM
same,IC50,second compound 10 µM,< 0.0316 µM
same,"viability, T/C",[1],72%
same,"viability, T/C",[2],80.9%
same,"viability, T/C",[3],70.2%
same,"viability, T/C",[4],74.2%
same,"viability, T/C",[5],72.4%
same,"viability, T/C",[6],52.2%
same,"viability, T/C",[7],48.2%
same,"viability, T/C",[8],48.5%
same,"viability, T/C",[9],44.4%
same,"viability, T/C",[10],38.9%
same,"viability, T/C",[11],36.8%
same,"viability, T/C",[12],33.3%
same,"viability, T/C",[13],42.1%
same,"viability, T/C",[14],42.2%
same,"viability, T/C",[15],37.7%
same,"viability, T/C",[16],35.4%
same,"viability, T/C",[17],43.8%
same,"viability, T/C",[18],29.9%
same,"viability, T/C",[19],32.2%
same,"viability, T/C",[20],37.4%
same,"viability, T/C",[21],34.8%
same,"viability, T/C",[22],34.6%
same,"viability, T/C",[23],35.6%
same,"viability, T/C",[24],25.2%
same,"viability, T/C",[25],32.6%
same,"viability, T/C",[26],30%
same,"viability, T/C",[27],32.5%
same,"viability, T/C",[28],30.9%
same,"viability, T/C",[29],34.5%
same,"viability, T/C",[30],24.4%
same,"viability, T/C",[31],32%
same,"viability, T/C",[32],30.5%
same,"viability, T/C",[33],28.5%
same,"viability, T/C",[34],35.8%
same,"viability, T/C",[35],32.4%
same,"viability, T/C",[36],22.7%
CC(Nc1ccc2c(c1)OCCn1cc(N3C(=O)OCC3C(F)F)nc1-2)C(N)=O (stereo not drawn) + CNC(=O)c1ccc(Nc2nc(OC3CCCC3)c3c(-c4ccc5nc(C)oc5c4)c[nH]c3n2)c(OC)c1,IC50,second compound 0.0316 µM,> 10 µM
same,IC50,second compound 0.1 µM,< 0.0316 µM
same,IC50,second compound 0.316 µM,< 0.0316 µM
same,IC50,second compound 1 µM,< 0.0316 µM
same,IC50,second compound 3.16 µM,< 0.0316 µM
same,IC50,second compound 10 µM,< 0.0316 µM
same,"viability, T/C",[1],74.7%
same,"viability, T/C",[2],72.8%
same,"viability, T/C",[3],78.1%
same,"viability, T/C",[4],73.9%
same,"viability, T/C",[5],76.3%
same,"viability, T/C",[6],62.8%
same,"viability, T/C",[7],38.7%
same,"viability, T/C",[8],33.6%
same,"viability, T/C",[9],21.3%
same,"viability, T/C",[10],23.2%
same,"viability, T/C",[11],24.6%
same,"viability, T/C",[12],15.3%
same,"viability, T/C",[13],40.3%
same,"viability, T/C",[14],30.3%
same,"viability, T/C",[15],29.1%
same,"viability, T/C",[16],29.2%
same,"viability, T/C",[17],19.1%
same,"viability, T/C",[18],16.7%
same,"viability, T/C",[19],35.5%
same,"viability, T/C",[20],28.9%
same,"viability, T/C",[21],25.1%
same,"viability, T/C",[22],22.4%
same,"viability, T/C",[23],19.9%
same,"viability, T/C",[24],9.04%
same,"viability, T/C",[25],32.5%
same,"viability, T/C",[26],30%
same,"viability, T/C",[27],23%
same,"viability, T/C",[28],22.7%
same,"viability, T/C",[29],18.3%
same,"viability, T/C",[30],11.7%
same,"viability, T/C",[31],32.5%
same,"viability, T/C",[32],28.6%
same,"viability, T/C",[33],23.5%
same,"viability, T/C",[34],18.6%
same,"viability, T/C",[35],22.3%
same,"viability, T/C",[36],14%
COc1c(OCCCN2CCOCC2)ccc2c3n(c(=NC(=O)c4cnc(N)nc4)nc12)CCN3 + CNC(=O)c1ccc(Nc2nc(OC3CCCC3)c3c(-c4ccc5nc(C)oc5c4)c[nH]c3n2)c(OC)c1,IC50,second compound 0.0316 µM,0.0595 µM
same,IC50,second compound 0.1 µM,< 0.00316 µM
same,IC50,second compound 0.316 µM,< 0.00316 µM
same,IC50,second compound 1 µM,< 0.00316 µM
same,IC50,second compound 3.16 µM,< 0.00316 µM
same,IC50,second compound 10 µM,< 0.00316 µM
same,"viability, T/C","second compound 0.0316 µM, first compound 0.00316 µM",81.8%
same,"viability, T/C","second compound 0.0316 µM, first compound 0.01 µM",85.6%
same,"viability, T/C",[1],65%
same,"viability, T/C",[2],37.5%
same,"viability, T/C",[3],6.4%
same,"viability, T/C",[4],2.99%
same,"viability, T/C","second compound 0.1 µM, first compound 0.00316 µM",31.6%
same,"viability, T/C","second compound 0.1 µM, first compound 0.01 µM",29%
same,"viability, T/C",[7],25.3%
same,"viability, T/C",[8],14.5%
same,"viability, T/C",[9],4.25%
same,"viability, T/C",[10],1.91%
same,"viability, T/C","second compound 0.316 µM, first compound 0.00316 µM",34.9%
same,"viability, T/C","second compound 0.316 µM, first compound 0.01 µM",32.7%
same,"viability, T/C",[13],19.5%
same,"viability, T/C",[14],10.1%
same,"viability, T/C",[15],3.08%
same,"viability, T/C",[16],1.56%
same,"viability, T/C","second compound 1 µM, first compound 0.00316 µM",38.9%
same,"viability, T/C","second compound 1 µM, first compound 0.01 µM",25.7%
same,"viability, T/C",[19],17.8%
same,"viability, T/C",[20],7.48%
same,"viability, T/C",[21],1.73%
same,"viability, T/C",[22],1.03%
same,"viability, T/C","second compound 3.16 µM, first compound 0.00316 µM",28.3%
same,"viability, T/C","second compound 3.16 µM, first compound 0.01 µM",24.1%
same,"viability, T/C",[25],15.3%
same,"viability, T/C",[26],8.87%
same,"viability, T/C",[27],2.29%
same,"viability, T/C",[28],0.59%
same,"viability, T/C","second compound 10 µM, first compound 0.00316 µM",22.5%
same,"viability, T/C","second compound 10 µM, first compound 0.01 µM",21.5%
same,"viability, T/C",[31],16.8%
same,"viability, T/C",[32],7.19%
same,"viability, T/C",[33],1.54%
same,"viability, T/C",[34],0.67%
